Reference: paper PMC4795001 (Chemical communications (Cambridge, England), 2015)
Where two headings read alike, the source gives them in different places.

Tests used:
[1] = target: T1, holo-TycB1 (recombinant) (Brevibacillus parabrevis, UniProt O30408); assay: coupled hydroxamate-MesG continuous spectrophotometric assay; assay type: biochemical
T1 sequence (O30408 1-1080 limits assumed): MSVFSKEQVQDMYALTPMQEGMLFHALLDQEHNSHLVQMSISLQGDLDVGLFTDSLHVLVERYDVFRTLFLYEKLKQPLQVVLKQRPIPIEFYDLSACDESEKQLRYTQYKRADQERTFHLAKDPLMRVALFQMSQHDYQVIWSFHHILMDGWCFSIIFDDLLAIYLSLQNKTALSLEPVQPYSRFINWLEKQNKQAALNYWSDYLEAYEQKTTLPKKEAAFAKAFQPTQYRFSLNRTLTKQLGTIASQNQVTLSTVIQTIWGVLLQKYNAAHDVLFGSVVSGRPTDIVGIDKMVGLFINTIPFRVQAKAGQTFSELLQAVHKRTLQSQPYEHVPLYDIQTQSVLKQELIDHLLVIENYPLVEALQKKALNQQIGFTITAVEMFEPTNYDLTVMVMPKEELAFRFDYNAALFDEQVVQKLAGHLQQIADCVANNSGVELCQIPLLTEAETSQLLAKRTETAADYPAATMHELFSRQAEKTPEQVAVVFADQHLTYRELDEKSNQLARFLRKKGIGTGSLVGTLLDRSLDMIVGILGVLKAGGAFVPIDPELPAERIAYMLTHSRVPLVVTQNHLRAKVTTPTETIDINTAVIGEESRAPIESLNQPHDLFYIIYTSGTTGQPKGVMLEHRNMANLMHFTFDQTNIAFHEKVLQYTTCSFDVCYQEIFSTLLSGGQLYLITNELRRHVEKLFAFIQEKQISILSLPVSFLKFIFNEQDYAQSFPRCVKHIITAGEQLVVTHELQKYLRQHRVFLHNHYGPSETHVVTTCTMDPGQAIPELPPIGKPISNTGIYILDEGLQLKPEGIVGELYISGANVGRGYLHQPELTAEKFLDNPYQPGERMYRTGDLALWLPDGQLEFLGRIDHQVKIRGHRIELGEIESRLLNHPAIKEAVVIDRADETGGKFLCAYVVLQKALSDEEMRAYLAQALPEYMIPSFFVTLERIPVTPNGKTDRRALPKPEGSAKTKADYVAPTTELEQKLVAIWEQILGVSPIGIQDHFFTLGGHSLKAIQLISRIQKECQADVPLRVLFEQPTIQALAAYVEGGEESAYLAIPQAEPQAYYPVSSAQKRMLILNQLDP

[2] = target: T2, holo-GrsA (recombinant) (Aneurinibacillus migulanus, UniProt P0C061); assay: as above; assay type: biochemical; conditions: read-out: Ki^app; tight-binding; A domain active site
T2 sequence (P0C061 1-1098): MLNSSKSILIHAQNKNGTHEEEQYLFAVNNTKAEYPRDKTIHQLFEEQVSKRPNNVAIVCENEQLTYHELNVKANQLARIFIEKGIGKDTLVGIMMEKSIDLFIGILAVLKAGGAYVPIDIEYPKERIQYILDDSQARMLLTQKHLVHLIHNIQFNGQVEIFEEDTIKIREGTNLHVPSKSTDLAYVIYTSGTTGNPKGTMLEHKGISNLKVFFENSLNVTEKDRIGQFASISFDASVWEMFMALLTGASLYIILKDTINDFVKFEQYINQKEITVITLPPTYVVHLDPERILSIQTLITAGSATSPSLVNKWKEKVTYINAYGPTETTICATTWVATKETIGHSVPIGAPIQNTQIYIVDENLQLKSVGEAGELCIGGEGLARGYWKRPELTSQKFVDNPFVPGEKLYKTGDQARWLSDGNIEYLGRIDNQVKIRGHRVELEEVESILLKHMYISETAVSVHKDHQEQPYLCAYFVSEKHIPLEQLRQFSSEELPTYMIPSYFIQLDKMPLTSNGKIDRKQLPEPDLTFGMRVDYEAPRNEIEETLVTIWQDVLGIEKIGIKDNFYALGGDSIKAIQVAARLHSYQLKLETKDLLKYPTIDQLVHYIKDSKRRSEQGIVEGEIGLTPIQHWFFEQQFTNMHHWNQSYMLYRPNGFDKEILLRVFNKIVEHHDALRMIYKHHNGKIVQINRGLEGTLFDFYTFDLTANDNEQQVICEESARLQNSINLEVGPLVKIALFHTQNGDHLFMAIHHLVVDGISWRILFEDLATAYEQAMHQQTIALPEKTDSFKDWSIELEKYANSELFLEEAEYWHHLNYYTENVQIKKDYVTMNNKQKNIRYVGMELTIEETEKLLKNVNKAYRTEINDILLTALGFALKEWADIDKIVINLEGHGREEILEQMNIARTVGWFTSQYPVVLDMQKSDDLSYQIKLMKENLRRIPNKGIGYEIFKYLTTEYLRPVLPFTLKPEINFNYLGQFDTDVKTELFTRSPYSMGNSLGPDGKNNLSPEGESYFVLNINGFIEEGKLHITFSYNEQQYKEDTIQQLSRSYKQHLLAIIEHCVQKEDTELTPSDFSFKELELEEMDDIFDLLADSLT

For `Nc1ncnc2c1ncn2[C@@H]1O[C@H](COS(=O)(=O)NC(=O)[C@@H]2CCCN2)[C@@H](O)[C@H]1O` [compound 5, L-Pro-AMS], the Ki [1] was 431 ± 42 nM.

L-Pro-AMS-BPyne [compound 2] showed a Ki ([1]; read-out: Ki^app, tight-binding, A domain active site) of 327 ± 17 nM.

In the case of L-Phe-AMS-BPyne [compound 1], the Ki [2] is reported as 1.43 ± 0.19 nM.
